Source: ChEMBL document CHEMBL1147499, “Chain-branched 1,3-dibenzylthioureas as vanilloid receptor 1 antagonists” (Bioorg Med Chem Lett, 2004)

Key:
[1] = species on record: Rattus norvegicus; test: Effective concentration of compound to induce 45 [Ca2+] influx in neonatal rat cultured spinal sensory neurons; assay type: functional
[2] = species on record: Rattus norvegicus; test: Inhibitory concentration of compound against 45 [Ca2+] influx in neonatal rat cultured spinal sensory neurons; assay type: functional

Row | EC50 [1] [µM] | IC50 [2] [nM] | Compound
1 | > 100 | 580 | C[C@@H](/N=C(\S)NCc1ccc(C(C)(C)C)cc1)c1ccc([N+](=O)[O-])cc1
2 | > 100 | 3240 | CC(C)C(/N=C(\S)NCc1ccc(C(C)(C)C)cc1)c1ccc(NS(C)(=O)=O)cc1 (centres undefined)
3 | > 100 | 3300 | C[C@@H](/N=C(\S)NCc1ccc(C(C)(C)C)cc1)c1ccc(N)cc1
4 | > 100 | 4960 | C[C@@H](/N=C(\S)NCc1ccc(C(C)(C)C)cc1)c1ccccc1
5 | > 100 | 3490 | C[C@@H](/N=C(\S)NCc1ccc(C(C)(C)C)cc1)c1ccc(C(C)(C)C)cc1
6 | > 100 | 25500 | C[C@H](/N=C(\S)NCc1ccc(C(C)(C)C)cc1)c1ccccc1
7 | > 100 | 3600 | CC(=O)Nc1ccc([C@@H](C)/N=C(\S)NCc2ccc(C(C)(C)C)cc2)cc1
8 | > 100 | 14700 | C[C@H](/N=C(\S)NCc1ccc(C(C)(C)C)cc1)c1ccc([N+](=O)[O-])cc1
9 | > 100 | 16700 | CC(C)(C)c1ccc(C/N=C(\S)NC(c2ccccc2)c2ccc(NS(C)(=O)=O)cc2)cc1 (centres undefined)
10 | > 100 | 50 | CC[C@@H](/N=C(\S)NCc1ccc(C(C)(C)C)cc1)c1ccc(NS(C)(=O)=O)cc1

Second part, the compound before the results:

Row | Compound | EC50 [1] [µM] | IC50 [2] [nM]
11 | CC(C)(C)c1ccc(CNC(=S)NCc2ccc(NS(C)(=O)=O)cc2)cc1 | > 100 | 
12 | CC(/N=C(\S)NCc1ccc(C(C)(C)C)cc1)c1ccc(NS(C)(=O)=O)cc1 (centres undefined) | > 100 | 150
13 | CCC(/N=C(\S)NCc1ccc(C(C)(C)C)cc1)c1ccc(NS(C)(=O)=O)cc1 (centres undefined) | > 100 | 360
14 | C[C@@H](NC(=S)NCc1ccc(C(C)(C)C)cc1)c1ccc(NS(C)(=O)=O)cc1 | > 100 | 50
15 | C[C@H](/N=C(\S)NCc1ccc(C(C)(C)C)cc1)c1ccc(NS(C)(=O)=O)cc1 | > 100 | 1470
16 | CCCC(/N=C(\S)NCc1ccc(C(C)(C)C)cc1)c1ccc(NS(C)(=O)=O)cc1 (centres undefined) | > 100 | 1490
17 | Cc1ccc(C(C)/N=C(\S)NCc2ccc(C(C)(C)C)cc2)cc1 (centres undefined) | > 100 | 400
18 | Oc1cc2c(cc1O)CN(C(=S)NCCc1ccc(Cl)cc1)CCC2 [CAPSAZEPINE] | > 100 | 
